From article PMC6338552 (Biochemistry, 2018)

Molecular target: JNK1/TMR-JIPtide (Homo sapiens, UniProt P45983)
Assay type: binding
Conditions: relative to apo-JNK1

Sequence of JNK1/TMR-JIPtide (P45983 1-384 isoform P45983-2, species assumed): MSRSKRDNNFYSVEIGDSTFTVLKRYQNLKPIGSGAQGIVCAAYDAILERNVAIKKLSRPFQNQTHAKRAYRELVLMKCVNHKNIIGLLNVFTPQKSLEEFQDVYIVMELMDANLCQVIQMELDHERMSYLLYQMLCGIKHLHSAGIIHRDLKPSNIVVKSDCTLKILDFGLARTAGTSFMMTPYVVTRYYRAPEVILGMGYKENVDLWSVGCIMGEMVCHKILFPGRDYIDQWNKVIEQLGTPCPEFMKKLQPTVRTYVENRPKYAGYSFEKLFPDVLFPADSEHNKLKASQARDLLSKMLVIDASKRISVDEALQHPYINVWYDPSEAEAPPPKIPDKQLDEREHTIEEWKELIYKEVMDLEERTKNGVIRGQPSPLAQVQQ

effect of ATP-binding site ligand on JNK1 affinity for JIPtide (in words): two-fold more tightly
Structure (SMILES): Nc1ncnc2c1ncn2[C@@H]1O[C@H](COP(=O)(O)OP(=O)(O)OP(=O)(O)O)[C@@H](O)[C@H]1O [ATP, adenosine triphosphate]
